{"source": "ChEMBL document CHEMBL1154170", "about": "“2-Oxoglutarate analogue inhibitors of prolyl hydroxylase domain 2” (Bioorg Med Chem Lett, 2009)"}
{"biological_target": "Egl nine homolog 1 (Homo sapiens, UniProt Q9GZT9)", "sequence (Q9GZT9 whole entry, the tested form may be a part)": "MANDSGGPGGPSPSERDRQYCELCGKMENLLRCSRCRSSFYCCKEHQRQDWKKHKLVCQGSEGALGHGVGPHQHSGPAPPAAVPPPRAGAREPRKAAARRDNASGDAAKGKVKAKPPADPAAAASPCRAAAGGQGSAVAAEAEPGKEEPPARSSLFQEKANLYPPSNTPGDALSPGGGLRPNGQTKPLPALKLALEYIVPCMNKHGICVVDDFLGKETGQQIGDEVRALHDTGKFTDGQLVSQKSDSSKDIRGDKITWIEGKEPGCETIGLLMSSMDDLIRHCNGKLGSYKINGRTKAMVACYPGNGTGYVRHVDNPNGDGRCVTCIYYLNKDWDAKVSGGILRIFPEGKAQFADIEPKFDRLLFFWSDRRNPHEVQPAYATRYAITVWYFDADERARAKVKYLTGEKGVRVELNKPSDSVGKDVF", "assay": "Inhibition of human PHD2 catalytic domain (181-426) by FRET assay", "units": {"IC50": "µM"}}
{"compound": "O=C(O)CNC(=O)CC(=O)O", "IC50": 398}
{"compound": "O=C(O)CCC(=O)NO", "IC50": 94}
{"compound": "CC(=O)CC(=O)NCC(=O)O", "IC50": "> 1000"}
{"compound": "CCOC(=O)C(=O)NCC(=O)O", "IC50": 78}
{"compound": "COC(=O)CNC(=O)C(=O)O", "IC50": "> 1000"}
{"compound": "CCNC(=O)C(=O)CCC(=O)O", "IC50": "> 1000"}
{"compound": "CCNC(=O)C(=O)NCC(=O)O", "IC50": "> 1000"}
{"compound": "O=C(O)CNC(=O)NO", "IC50": "> 1000"}
{"compound": "CC(=O)CC(=O)CCC(=O)O", "note": "[SUCCINYLACETONE]", "IC50": 18}
{"compound": "COC(=O)C(=O)NCC(=O)O", "IC50": 95}
{"compound": "O=C(O)CNC(=O)CC(=O)c1ccccc1", "IC50": "> 1000"}
{"compound": "O=C(O)CNC(=O)C(=O)C(=O)c1ccccc1", "IC50": 538}
{"compound": "O=C(O)CNC(=O)C(=O)NCc1ccccc1", "IC50": "> 1000"}
{"compound": "CCOC(=O)CC(=O)NCC(=O)O", "IC50": "> 1000"}
{"compound": "O=C(O)CN1CCNC(=O)C1=O", "IC50": "> 1000"}
